Data on one molecule can be found in article PMC3726599, “A Metabolically-Stabilized Phosphonate Analog of Lysophosphatidic Acid Attenuates Collagen-Induced Arthritis” (PLoS ONE, 2013).

Each structure is given as a SMILES string.

One assay deals with LPA3. The settings on record: Ca++ mobilization, RH7777 cells; kind of constant not given; read-out: inhibition of LPA3; cited from earlier work.
For another assay, the target named is T1, recombinant ATX (Homo sapiens, UniProt Q13822).
T1 construct: purchased SinoBiological Inc (main data); R&D (additional Km values)
In words: TOOS activity assay, LPC hydrolysis by recombinant ATX. It counts as biochemical. The settings on record: for Vmax of ATX in presence of BrP-LPA: 16:0 LPC 100–400 μΜ, mean(std); for % Inhibition at 10 μΜ: BrP-LPA 10 μΜ; for IC50: [S] 50 μΜ, 2 nM ATX. The protocol: ATX/LysoPLD activity was assessed based on the amount of choline released from LPC with the use of TOOS (N-ethyl-N-(2-hydoroxy-3-sulfopropyl)-3-methylaniline) reagent. In this assay ATX-mediated LPC-liberated choline is oxidised by choline oxidase to betaine and hydrogen peroxide (H2O2). The latter in the presence of horseradish peroxidase reacts with TOOS and 4-aminoantipyrene (4-AAP) to form a pink quinoneimine dye measured at 555 nm.
Diluted plasma samples (100 fold dilution; final EDTA concentration 0.5 mM) or recombinant ATX protein (2 nM) were incubated with LPC in the presence of 100 mmol/l Tris–HCl/pH 9.0, 500 mmol/l NaCl, 5 mmol/l MgCl2, 5 mmol/l CaCl2, 60 μM CoCl2 and 0.05% Triton X-100 for 3 h at 37°C at a final volume of 100 μl. It should be noted that EDTA was used not only as an anticoagulant but also as an inhibitor of ATX activity ex vivo [46], in order to suppress artificial LPA production during blood withdrawal and plasma preparation; this is because the same samples were used in phospholipid measurements.
The liberated choline was detected by adding 100 μl of a color mix containing 4-AAP and TOOS (0.3 mM), horseradish peroxidase (5.3 UnitmL^−1) and choline oxidase (2 UnitmL^−1). Absorbance was measured at 555 nm and data were analyzed using the statistical software package Prism 4.0 (Graphpad Software Inc, La Jolla, CA, USA). For each sample and control the absorbance was plotted against time and the slope (da/min) for the linear (steady-state) portion of each reaction profile was calculated. Absorbance units were converted to nmol of choline/min/ml by comparison with a choline standard curve or by use of the extinction coefficient for the quinoneimine dye according to the following equation: [drawing 1] Where Vt* is the total volume of reaction in ml (0.2 ml); Vs* is the volume of sample in ml; e is the millimolar extinction coefficient of quinoneimine dye under the assay conditions (e = e = […]); and 1/2: Factor based on the fact that 1 mol of hydrogen peroxide produces 1/2 mol of quinoneimine dye.
The biochemistry of lyso-PLD was assessed by following the kinetics data using a wide panel of different ATX substrates [FS-3, different LPC species (14:0, 16:0, 18:0, 18:1)], three different recombinant ATX proteins (R&D, Sino-Biological and Echelon) and three different ATX activity assays (FS-3, TOOS, Amplex Red). The ATX activity was measured at different substrate concentrations (typically from 1-1000 μM) in order to examine whether ATX follows Michaelis-Menten kinetics. The Michaelis constant (Km) was obtained by fitting the substrate dependence of V (ATX activity) to a rectangular hyperbola using the non-linear regression analysis of the statistical software package Prism 4.0 (GraphPad Software, Inc.). Km and Vmax were evaluated from the rectangular hyperbola curve with the use of GraphPad software.
For in vitro inhibition measurements, BrP-LPA was dissolved in water as a stock solution (4 mM) and appropriate dilutions were made in water. The inhibition of ATX by BrP-LPA was measured employing 2 nM recombinant ATX, 50 μΜ LPC (14:0, 16:0, 18:0) and 0.01 to 100 μmol/L of BrP-LPA (final concentrations). The in vitro inhibition of ATX by BrP-LPA was evaluated with three different assays (FS-3, Amplex Red, and TOOS). […] BrP-LPA was also tested for its ability to inhibit mouse plasma ATX activity. Diluted mouse plasma was used as the source of ATX and the analysis of inhibition was made with TOOS as the in vitro inhibition assay.
The inhibition model (competitive, noncompetitive, or mixed type inhibition) was evaluated by graphical analysis with Lineweaver–Burk double reciprocal plots (1/[velocity] versus 1/[substrate]) and Cornish-Bowden plot ([substrate]/[velocity] versus [Inhibitor]). These plots were generated by the measurement of ATX activity in the presence of different BrP-LPA concentrations (0–10 μΜ) and increased amounts of 16:0 LPC (100, 200, 400 μΜ). […]

Usually % Inhibition stands for the drop in the measured response relative to a control, in per cent. Broadly, the Ki is the dissociation constant of the complex between target and ligand, obtained from inhibition or displacement. Consider `CCCCCCCCCCCCCCCC(=O)OC[C@@H](O)CC(Br)P(=O)(O)O` (stereo partly drawn) [BrP-LPA, 1-bromo-3(S)-hydroxy-4-(palmitoyloxy)butyl-phosphonate], for which the IC50 in the assay with LPA3 was 1200 nM; at recombinant ATX (TOOS, substrate 16:0 LPC, mean±std of two experiments), 700 ± 200 nM; on recombinant ATX (TOOS, substrate 18:0 LPC, mean±std), 900 ± 100 nM. For the same molecule, the “mode of inhibition of ATX lysoPLD activity” value on recombinant ATX (16:0 LPC as substrate, Cornish-Bowden and Lineweaver-Burk plots) is “competitive”. For the same molecule, the “Vmax of ATX in presence of BrP-LPA” value on recombinant ATX (BrP-LPA 1 μM) is listed as 51(3) nmole/min/ml; on recombinant ATX (BrP-LPA 3 μM), 71(4) nmole/min/ml; at recombinant ATX (BrP-LPA 10 μM) it was 54(13) nmole/min/ml. In addition, the “% Inhibition at 10 μΜ” value at recombinant ATX (TOOS, 16:0 LPC 50 μΜ) stood at 80%; on recombinant ATX (TOOS, 18:0 LPC 50 μΜ), 70%. Besides, the inhibition constant Ki at recombinant ATX (TOOS, 18:0 LPC, Cheng-Prusoff from IC50) is 600 ± 110 nM.
